Data from patent publication EP0622358A1, “Phenylglycinamides of 4-imidazolylmethyl-phenyl-acetic acids and their use against hypertension and atherosclerosis” (BAYER AG, priority 1993, dated 1994).

System: glatte Muskelzellen
Assay: Inhibition of proliferation of smooth muscle cells (3H-thymidine incorporation)
Type: cell-based, Ratten
Conditions: half-maximal inhibition of thymidine incorporation induced by 10% FCS; rat aortic smooth muscle cells; read-out: IC₅₀
Description: Untersuchung zur Inhibition der Proliferation glatter Muskelzellen durch die erfindungsgemäßen Verbindungen
Zur Feststellung der antiproliferativen Wirkung der Verbindungen werden glatte Muskelzellen verwendet, die aus den Aorten von Ratten durch die Media-Explantat-Technik gewonnen werden [R. Ross, J. Cell. Biol. 50, 172, 1971]. Die Zellen werden in geeigneten Kulturschalen, in der Regel 96-Loch-Platten, ausgesät und für 2 - 3 Tage in Medium 199 mit 7,5% FCS und 7,5% NCS, 2 mM L-Glutamin und 15 mM HEPES, pH 7,4 in 5% CO₂ bei 37°C kultiviert. Danach werden die Zellen durch Serumentzug für 2 - 3 Tage synchronisiert und sodann mit Serum zum Wachstum angeregt. Gleichzeitig werden Testverbindungen zugesetzt. Nach 16 - 20 Stunden wird 1 µCi ³H-Thymidin zugefügt und nach weiteren 4 Stunden der Einbau dieser Substanz in die TCA-präzipitierbare DNA der Zellen bestimmt Zur Bestimmung der IC₅₀₋Werte wird die Wirkstoffkonzentration errechnet, die bei sequentieller Verdünnung des Wirkstoffes halbmaximale Hemmung der durch 10% FCS hervorgerufene Thymidininkorporation bewirkt. Tabelle B

SMILES: CCCCc1nc(Cl)c(C=O)n1Cc1ccc(C(C(=O)NC(C(N)=O)c2ccccc2)C2CCCC2)cc1 (centres unmarked) [Beispiel 1, 2-{2-[4-(2-Butyl-4-chlor-5-formyl-imidazol-1-yl-methyl)phenyl]-2-cyclopentyl}-acetamido-2-phenyl-acetamid]
- IC50: 1 nM

SMILES: CCCCc1nc(Cl)c(CO)n1Cc1ccc(C(C(=O)NC(C(N)=O)c2ccccc2)C2CCCC2)cc1 (centres unmarked) [Beispiel 6, 2-{2-[4-(2-Butyl-4-chlor-5-hydroxymethyl-imidazol-1-yl-methyl)phenyl]-2-cyclopentyl}acetamido-2-phenyl-acetamid]
- IC50: 0.2 nM
